Laboratory results reported in patent publication US20250072421A1, “ARYL DIHYDROPYRAN DERIVATIVE OR SALT THEREOF, PEST CONTROL AGENT CONTAINING SAME, AND METHOD FOR USE THEREOF” (ADEKA Corporation, priority 2021, published 2025).

Tests used:
Plutella xylostella = assay: Insecticidal test against Plutella xylostella; settings: 500 ppm drug solution, Chinese cabbage seedlings with eggs immersed about 30 sec, six days after immersion, 25° C.
Laodelphax striatellus = assay: Insecticidal test against Laodelphax striatellus; settings: 500 ppm drug solution, rice seedlings immersed 30 seconds, three-instar insects, eight days after inoculation
[1] = tested on: Frankliniella occidentalis; assay: Insecticidal test against Frankliniella occidentalis; settings: 500 ppm drug solution sprayed on Phaseolus vulgaris leaf pieces with hatched larvae, four days after treatment
Dirofilaria immitis = assay: Influence evaluation test on the growth of Dirofilaria immitis; format: cell-based; settings: 168 h, read-out: development inhibition rate from the L3 stage larva to the L4-stage larva

Q: `O=C(NC1CC1)C1=C(O)CC(c2ccc(C(F)(F)F)cc2)OC1=O` (centres unmarked) [1-74] was tested. Which “rating of assessment (corrected mortality) against Plutella xylostella” value (“rating … against Plutella xylostella” below) (Plutella xylostella) did it give?
A: D or higher

Q: Which “rating … against Plutella xylostella” value (Plutella xylostella) does the source give for `CSc1ccc(C2CC(O)=C(C(=O)Nc3ccc(F)cc3)C(=O)O2)cc1` (centres unmarked) [1-83] here?
A: D or higher

Q: `O=C(Nc1ccc(F)cn1)C1=C(O)CC(c2ccc(C(F)(F)F)nc2)OC1=O` (centres unmarked) [1-76] was tested. Which “rating … against Plutella xylostella” value (Plutella xylostella) did it give?
A: D or higher

Q: What about the “rating of assessment (corrected mortality) against Laodelphax striatellus” value (from here on “rating … against Laodelphax striatellus”) (Laodelphax striatellus) of the same compound?
A: D or higher

Q: Which “rating … against Plutella xylostella” value (Plutella xylostella) does the source give for `CC1(C)C(O)=C(C(=S)Nc2ccc(F)cc2)C(=O)OC1c1ccc(C(F)(F)F)cc1` (centres unmarked) [1-67] here?
A: D or higher

Q: `O=C(Nc1ccc(F)cc1)C1=C(O)CC(c2ccc3c(c2)OCO3)OC1=O` (centres unmarked) [1-103] was tested. Which “rating … against Plutella xylostella” value (Plutella xylostella) did it give?
A: D or higher

Q: With `O=C(Nc1ccc(F)cc1)C1=C(O)CC(c2ccc(C(F)(F)F)nc2)OC1=O` (centres unmarked) [1-21] as the compound, how does the “rating … against Plutella xylostella” value (Plutella xylostella) read?
A: D or higher

Q: What about the “rating … against Laodelphax striatellus” value (Laodelphax striatellus) of the same compound?
A: D or higher

Q: And the “rating of assessment (corrected mortality) against Frankliniella occidentalis” value [1]?
A: D or higher

Q: With `CS(=O)(=O)c1ccc(C2CC(O)=C(C(=O)Nc3ccc(F)cc3)C(=O)O2)cc1` (centres unmarked) [1-85] as the compound, how does the “rating … against Plutella xylostella” value (Plutella xylostella) read?
A: D or higher

Q: How did the “rating … against Laodelphax striatellus” value (Laodelphax striatellus) turn out when `CC1(C)C(O)=C(C(=S)Nc2ccc(F)cn2)C(=O)OC1c1ccc(C(F)(F)F)cc1` (centres unmarked) [1-71] was run?
A: D or higher

Q: Which “rating … against Plutella xylostella” value (Plutella xylostella) does the source give for `COc1ccccc1C1CC(O)=C(C(=O)Nc2ccc(F)cc2)C(=O)O1` (centres unmarked) [1-131] here?
A: D or higher

Q: For `O=C(Nc1ccc(F)cc1)C1=C(O)CC(c2ccc(Cl)nc2)OC1=O` (centres unmarked) [1-75], which “rating … against Plutella xylostella” value (Plutella xylostella) is on record?
A: D or higher

Q: What about the “rating … against Laodelphax striatellus” value (Laodelphax striatellus) of the same compound?
A: D or higher

Q: What about the “rating of assessment (corrected mortality) against Frankliniella occidentalis” value [1] of the same compound?
A: D or higher

Q: `O=C(Nc1ccc(F)cc1)C1=C(O)CC(c2ccc([N+](=O)[O-])cc2)OC1=O` (centres unmarked) [1-107] was tested. Which “rating … against Plutella xylostella” value (Plutella xylostella) did it give?
A: D or higher

Q: With `O=C1OC(c2ccc(C(F)(F)F)cc2)C2(CCCCC2)C(O)=C1C(=S)Nc1ccc(F)cc1` (centres unmarked) [1-68, N-(4-fluorophenyl)-5-hydroxy-3-oxo-1-(4-(trifluoromethyl)phenyl)-2-oxaspiro[5.5]undec-4-en-4-carbothioamide] as the compound, how does the inhibition at 10 µM (Dirofilaria immitis) read?
A: ≥ 50%

Q: For `Cc1ccc(NC(=O)C2=C(O)CC(c3ccc(C(F)(F)F)cc3)OC2=O)cc1` (centres unmarked) [1-73], which “rating … against Plutella xylostella” value (Plutella xylostella) is on record?
A: D or higher

Q: How did the “rating … against Plutella xylostella” value (Plutella xylostella) turn out when `O=C(Nc1ccc2c(c1)OCO2)C1=C(O)CC(c2ccc(C(F)(F)F)cc2)OC1=O` (centres unmarked) [1-15] was run?
A: D or higher

Q: `O=C(Nc1ccc(F)cc1)C1=C(O)CC(c2ccc(SC(F)(F)F)cc2)OC1=O` (centres unmarked) [1-135] was tested. Which “rating … against Plutella xylostella” value (Plutella xylostella) did it give?
A: D or higher

Q: With `O=C(Nc1ccc(Oc2ccccc2)cc1)C1=C(O)CC(c2ccc(C(F)(F)F)cc2)OC1=O` (centres unmarked) [1-14] as the compound, how does the “rating … against Plutella xylostella” value (Plutella xylostella) read?
A: D or higher

Q: With `O=C(Nc1cccs1)C1=C(O)CC(c2ccc(C(F)(F)F)cc2)OC1=O` (centres unmarked) [1-7] as the compound, how does the “rating … against Plutella xylostella” value (Plutella xylostella) read?
A: D or higher

Q: For `C[S+]([O-])c1ccc(C2CC(O)=C(C(=O)Nc3ccc(F)cc3)C(=O)O2)cc1` (centres unmarked) [1-84], which “rating … against Plutella xylostella” value (Plutella xylostella) is on record?
A: D or higher

Q: What does the source list for `O=C(Nc1ccc(F)cn1)C1=C(O)CC(c2ccc(C(F)(F)F)cc2)OC1=O` (centres unmarked) [1-77]?
A: rating of assessment (corrected mortality) against Plutella xylostella (Plutella xylostella): D or higher; rating of assessment (corrected mortality) against Frankliniella occidentalis [1]: D or higher

Q: Which “rating … against Plutella xylostella” value (Plutella xylostella) does the source give for `CC1(C)C(O)=C(C(=O)Nc2ccc(F)cc2)C(=O)OC1c1ccc(C(F)(F)F)cc1` (centres unmarked) [1-22] here?
A: D or higher

Q: How did the inhibition at 10 µM (Dirofilaria immitis) turn out when `O=C(Nc1ccc(F)cc1)C1=C(O)CC(c2ccc(C(F)(F)F)c(Cl)c2)OC1=O` (centres unmarked) [1-1, 6-(3-chloro-4-(trifluoromethyl)phenyl)-N-(4-fluorophenyl)-4-hydroxy-2-oxo-5,6-dihydro-2H-pyran-3-carboxamide] was run?
A: ≥ 50%

Q: What about the “rating … against Plutella xylostella” value (Plutella xylostella) of the same compound?
A: D or higher

Q: How did the “rating … against Plutella xylostella” value (Plutella xylostella) turn out when `O=C(Nc1ccc(F)cc1)C1=C(O)CC(c2cc(-c3ccccc3)no2)OC1=O` (centres unmarked) [1-78] was run?
A: D or higher

Q: For `N#Cc1ccc(C2CC(O)=C(C(=O)Nc3ccc(F)cc3)C(=O)O2)cc1` (centres unmarked) [1-97], which “rating … against Plutella xylostella” value (Plutella xylostella) is on record?
A: D or higher

Q: `O=C(Nc1ccc(F)cc1)C1=C(O)CC(c2ccc(OC(F)(F)F)cc2)OC1=O` (centres unmarked) [1-86] was tested. Which “rating … against Plutella xylostella” value (Plutella xylostella) did it give?
A: D or higher

Q: Which “rating … against Plutella xylostella” value (Plutella xylostella) does the source give for `COc1ccccc1C1CC(O)=C(C(=O)Nc2ccc(SC(F)(F)F)cc2)C(=O)O1` (centres unmarked) [1-132] here?
A: D or higher

Q: Which “rating … against Plutella xylostella” value (Plutella xylostella) does the source give for `COc1ccc(NC(=S)C2=C(O)CC(c3ccc(C(F)(F)F)cc3)OC2=O)cc1` (centres unmarked) [1-31] here?
A: D or higher

Q: With `O=C(Nc1ccc(Cl)cc1)C1=C(O)CC(c2ccc(C(F)(F)F)cc2)OC1=O` (centres unmarked) [1-5] as the compound, how does the “rating … against Plutella xylostella” value (Plutella xylostella) read?
A: D or higher

Q: For `O=C(Nc1ccccc1)C1=C(O)CC(c2ccc(C(F)(F)F)cc2)OC1=O` (centres unmarked) [1-6], which “rating … against Plutella xylostella” value (Plutella xylostella) is on record?
A: D or higher
